Reference: patent US20130261133A1, “Therapeutic Compounds for Protozoal and Microbial Infections and Cancer” (THE UNIVERSITY OF MONTANA, priority 2012, published 2013)
“And” between values parts separate entries of the source, which are not always exact repeats. Equal entries are not always repeated. Where two headings read alike, the source gives them in different places.

Columns and labels:
[1] = test system: B. subtilis; assay: MIC broth microdilution, Alamar Blue; format: cell-based; details: minimum inhibitory concentration
[2] = test system: E. faecalis; assay: MIC broth microdilution, Alamar Blue; format: cell-based; details: minimum inhibitory concentration
[3] = test system: P. falciparum clone W2/Indochina; assay: In vitro malaria assay, [3H]-hypoxanthine incorporation; format: cell-based; details: Plasmodium falciparum, W2, 72 h, read-out: IC50 Plasmodium
Description: a. In vitro Parasite Culturing: P. falciparum clone W2/Indochina was grown in continuous culture using RPMI 1640 media containing 10% heat-inactivated type A+ human plasma, sodium bicarbonate (2.4 g/L), HEPES (5.94 g/L) and 4% washed human type A+ erythrocytes. Cultures were gassed with a 90% N2, 5% O2 and 5% CO2 mixture followed by incubation at 37° C. b. Assay Preparation: Test compounds at 5 mg/mL in DMSO were diluted 1:500 and then serially diluted in duplicate over 11 concentrations. P. falciparum cultures with >70% ring stage parasites were diluted to 0.5-0.7% parasitemia and 1.5% hematocrit in RPMI 1640 media. In 96-well plates a volume of 90 μl/well of parasitized erythrocytes was added on top of 10 μL/well of the test compound. A separate plate containing chloroquine, dihydroartemisinin and atovaquone was added to each set of assay plates as control drugs. A Beckman Coulter Biomek 3000 was used to dispense test compounds, control drugs and parasitized erythrocytes into the microtiter plates. Positive and negative controls were included in each plate. Positive controls consisted of parasitized erythrocytes and negative controls consisted of non-parasitized erythrocytes at 1.5% hematocrit in RPMI 1640 media. Assay plates were placed into a modulator incubator chamber and equilibrated with 90% N2, 5% O2 and 5% CO2 mixture then incubated at 37° C. for 48 hours. After 48 hours, approximately 0.05 μCi of [^3H]-hypoxanthine monohydrochloride was added to each well of the assay plates. Plates were put back into the modulator incubation chamber, gassed with the 90% N2, 5% O2 and 5% CO2 mixture then incubated at 37° C. for an additional 24 hours. After 72 hours total incubation time the plates were frozen at −80° C. until later processed for parasite growth determinations. c. Assay Plate Processing: Assay plates were harvested using a Perkin Elmer FilterMate Harvester. The incorporation of [^3H]-hypoxanthine into nucleic acid was measured using a Perkin Elmer Topcount NXT Microplate Scintillation & Luminescence Counter. d. Data Analysis: Data analysis was performed using a custom database manager (Dataspects, Inc). Nonlinear regression analysis was used to calculate EC50.

[4] = test system: C. albicans; assay: MIC broth microdilution, Alamar Blue; format: cell-based; details: minimum inhibitory concentration
[5] = test system: P. aeruginosa; assay: MIC broth microdilution, Alamar Blue; format: cell-based; details: minimum inhibitory concentration
[6] = test system: B. anthracis; format: cell-based; details: minimum inhibitory concentration
[7] = test system: S. pyogenes; assay: MIC broth microdilution, Alamar Blue; format: cell-based; details: minimum inhibitory concentration
[8] = test system: C. glabrata; assay: MIC broth microdilution, Alamar Blue; format: cell-based; details: minimum inhibitory concentration
[9] = test system: Leishmania donovani; assay: Antileishmanial assay, Leishmania in infected macrophages (L. donovani); details: for IC50: Leishmania donovani, Macrophage, read-out: IC50 Leishmania in infected macrophages; for Selectivity Index: IC50 for HepG2 cells/IC50 for Leishmania donovani
[10] = test system: S. aureus 13709; assay: MIC broth microdilution, Alamar Blue; format: cell-based; details: minimum inhibitory concentration
[11] = test system: Leishmania amazonensis; assay: Antileishmanial assay, Leishmania in infected macrophages (L. amazonensis); details: Leishmania amazonensis
[12] = test system: HepG2 cells; assay: Cytotoxicity against human liver (HepG2) cells, Alamar Blue; format: cell-based
Description: Several of these analogues were also evaluated for cytotoxicity against human liver (HepG2) cells. Of particular interest was that compounds 47 and 48 were approximately an order of magnitude less cytotoxic as compared to compound 1.
Adherent cell lines were maintained in Eagle's Minimal Essential Media (Sigma-Aldrich, St. Louis, Mo., USA) with 2 mM glutamine and Earle's Balanced Salt Solution (HyClone, Logan, Utah, USA) adjusted to contain 1.5 g/L sodium bicarbonate, 0.1 mM non-essential amino acids, 1 mM sodium pyruvate and 10% fetal calf serum. Fetal calf serum used in these assays was lot matched throughout. All cultures were maintained under a humidified 5% CO2 atmosphere at 37° C., had media refreshed twice weekly and were subcultured by trypsinization and resuspension at a ratio of 1:5 each week. Toxicity assays were conducted between passages 10-20. Target compound toxicity was measured by incubating the test compound with the cells for 4 hours, washing the cells and finally treating the cells with Alamar Blue. After 12-24 hours, the fluorescence of the reduced dye was measured. Fluorescence intensity as a function of test compound concentration was fit to the Fermi equation, using non-linear least squares regression analysis, to estimate IC50 values.

[13] = Body and organ weights of infected, treated BALB/c mice; format: in vivo; details: for Body weight / Mean body weight of mice Post-treatment: 10 mg/kg i.p.; for Body weight: individual mice, Table 4; for Mean body weight of mice Post-treatment / Mean body weight of mice Pre-treatment: group mean; for Mean body weight of mice Pre-treatment: pre-treatment (baseline)
Description: (§1) Compounds 47, 48, and 50 were then evaluated in animal studies with BALB/c mice with leishmaniasis. Compounds were delivered via i.p. injection at 10 mg/kg, with untreated, vehicle, and miltefosine controls as described in Table 2. […] Miltefosine, the only oral treatment currently available to treat leishmaniasis in humans, was also evaluated in the BALB/c mice for comparison purposes.

[14] = test system: leishmaniasis (LV82 PM infection), liver parasitemia; assay: In vivo efficacy: liver parasitemia in BALB/c mice with leishmaniasis; details: 10 mg/kg i.p.; for LDU mean ± SD: group mean, n=4; for % Reduction (Average) in liver parasitemia: infected BALB/c mice; for # of amastigotes per 200 nuclei: liver; for # of amastigotes per 200 nuclei / LDU: individual mice; for LDU: total liver parasitemia
Description: The following protocols were used to prepare the various treatments described in Table 2: • a. Miltefosine ([…] stock solution in sterile PBS): 7.5 mg miltefosine was weighed and put in a eppendorf tube, then 0.75 mL of sterile PBS was added. After vortexing, a clear solution was formed. Make 1 mg/mL solution daily by diluting 100 μL of 10 mg/mL miltefosine solution in 900 μL sterile PBS. • b. Vehicle control: 5% (v/v) DMSO, 50% (v/v) PEG 400, 10% (v/v) Ethanol, and 35% (v/v) distilled water. • c. Compound 47 (2 mg/mL solution of compound 47 in PEG 400/Ethanol vehicle): […]. Dilute the above solution 1:20 with PEG 400/EtOH/water daily. After vortexing and warming up at 37° C. for 30 min., a clear solution formed. • d. Compound 48 (2 mg/mL solution of compound 48 in PEG 400/Ethanol vehicle): 6.8 mg of compound 48 was dissolved in 0.17 mL of DMSO to make a 40 mg/mL stock solution. After vortexing, a yellowish-brown solution was formed. Diluted the above solution 1:20 with PEG 400/EtOH/water daily. After vortexing a clear solution formed. • e. Compound 50 (2 mg/mL solution of compound 50 in PEG 400/Ethanol vehicle): 8.4 mg of compound 50 was dissolved in 0.21 mL of DMSO to make a 40 mg/mL stock solution. After vortexing, a dark yellowish-brown solution was formed. Diluted the above solution 1:20 with PEG 400/EtOH/water. After vortexing a clear solution formed.
as §1

[15] = HepG2, read-out: IC50 mammalian HepG2 cells
[16] = HepG2, read-out: IC50 against the HepG2 cell line

| SMILES | MIC B. subtilis [1] | MIC E. faecalis [2] | IC50 [3] | MIC C. albicans [4] | MIC P. aeruginosa [5] | MIC B. anthracis [6] | MIC S. pyogenes [7] | MIC C. glabrata [8] | IC50 [9] | MIC S. aureus [10] | IC50 [12, 15] | Selectivity Index [9] | other results |
| --- | --- | --- | --- | --- | --- | --- | --- | --- | --- | --- | --- | --- | --- |
| C=C[C@@H](C#CC#C[C@H](O)CCCCCCCCCCCCCCC)OC(C)=O (stereo in doubt) [Compound 44, (3S,8R)-8-hydroxytricosa-1-en-4,6-diyn-3-yl acetate] | >1000 | >1000 | 2.14 µg/mL | >1000 | >1000 | >1000 | >1000 | >1000 | 0.287 µM | >1000 |  |  |  |
| C=C[C@H](C#CC#C[C@@H](O)CCCCCCCCC)OC(C)=O [Compound 3, (3R,8S)-8-hydroxyheptadeca-1-en-4,6-diyn-3-yl acetate] |  |  | 8.15 µg/mL |  |  |  |  |  |  |  |  |  | anti-Leishmanial activity at 10 μM ([11]; 10 μM): no anti-Leishmanial activity; IC50 ([11]; Macrophage, read-out: IC50 Leishmania in infected macrophages): > 10 µM |
| C=C[C@@H](C#CC#C[C@H](O)CCC)OC(C)=O [Compound 20, (3S,8R)-8-hydroxyundeca-1-en-4,6-diyn-3-yl acetate] | 250 | 1000 | 9.18 µg/mL | 250 | >1000 | 1000 | 250 | 250 | 0.197 µM | 1000 | 57 ± 2 µM | 290 |  |
| C=C[C@@H](C#CC#C[C@H](N)CCCCCCCCC)OC(C)=O [Compound 45, (3S,8R)-8-aminoheptadeca-1-en-4,6-diyn-3-yl acetate] | 250 | 1000 |  | 250 | >1000 | 250 | 250 | 500 |  | 1000 |  |  |  |
| C=C[C@@H](C#CC#C[C@@H](CCCCCCCCC)NS(C)(=O)=O)OC(C)=O [Compound 46, (3S,8R)-8-(methylsulfonamido)heptadeca-1-en-4,6-diyn-3-yl acetate] | 4 | >1000 | 4.47 µg/mL | >1000 | >1000 | >1000 | 8 | >1000 | 0.055 µM | >1000 | 29 ± 1 µM | 530 |  |
| C=C[C@@H](C#CC#C[C@@H](CCCCCCCCC)NC(=O)c1ccccc1)OC(C)=O [Compound 47, (3S,8R)-8-benzamidoheptadeca-1-en-4,6-diyn-3-yl acetate] | >1000 | >1000 | 4.85 µg/mL | >1000 | >1000 | >1000 | >1000 | >1000 | 0.035 µM | >1000 | 486 ± 14 µM | 14,000 | Body weight [13]: 18.3 g (2×) and 19.5 g and 18.2 g; Mean body weight of mice Post-treatment [13]: 18.6 g; Mean body weight of mice Pre-treatment [13]: 19.2 g; IC50 [12, 16]: 486 ± 14 µM; LDU mean ± SD [14]: 2979.6; % Reduction (Average) in liver parasitemia [14]: 26.0%; % Reduction (Average) in liver parasitemia ([14]; listed as compound 47): 26%; # of amastigotes per 200 nuclei [14]: 596 and 543 and 595 and 582; LDU [14]: 2960.3 and 2834.7 and 2961.0 and 3162.3 |
| C=C[C@@H](C#CC#C[C@@H](CCCCCCCCC)NCCCC)OC(C)=O [Compound 48, (3S,8R)-8-(butylamino)heptadeca-1-en-4,6-diyn-3-yl acetate] | 125 | 500 | 5.72 µg/mL | 1000 | >1000 | 250 | 250 | >1000 | 0.034 µM | 500 | 342 ± 46 µM | 10,000 | Body weight [13]: 17.2 g and 19.2 g and 19.8 g and 19.0 g; Mean body weight of mice Post-treatment [13]: 18.8 g; Mean body weight of mice Pre-treatment [13]: 19.3 g; IC50 [12, 16]: 342 ± 46 µM; LDU mean ± SD [14]: 2721.9; % Reduction (Average) in liver parasitemia [14]: 32.4%; % Reduction (Average) in liver parasitemia ([14]; listed as compound 48): 32%; # of amastigotes per 200 nuclei [14]: 536 and 529 and 498 and 476; LDU [14]: 2541.4 and 2830.2 and 2913.1 and 2603.0 |
| C=C[C@@H](C#CC#C[C@@H](CCCCCCCCC)OS(C)(=O)=O)OC(C)=O [Compound 49, (3S,8R)-8-((methylsulfonyl)oxy)heptadeca-1-en-4,6-diyn-3-yl acetate] | 250 | 500 | 2.13 µg/mL | >1000 | >1000 | 250 | 125 | >1000 | 0.061 µM | 250 |  |  |  |
